The nature of this data set: Drug excretion in human subject rapid inactivator assessed as total isonicotinoyl compound level in urine at 670 mg, iv infused at constant rate 5.2min measured 458 mins after start of drug injection by colorimetry. Type of data set: ADME, organism-based. Particulars: in vivo.

Each structure is given as a SMILES string.

Take `NNC(=O)c1ccncc1` [ISONIAZID]: the Drug excretion is on record as 17.2 mg.

The values are drawn from ChEMBL document CHEMBL3785036 (J Pharm Sci, 1974).
